Row | Compound | melting point [°C]
1 | CC(C)=NNc1cnn(-c2cccc(C(F)(F)F)c2)c(=O)c1 | 255 to 257
2 | CON=C(N)C(F)(F)C(O)(Cn1cncn1)c1ccc(F)cc1F (configuration not stated) | 114
3 | COc1ccc(N2CCOCC2)c2sc(NC(=O)N3C[C@@H]4CC[C@H]3C4)nc12 | 149
4 | C#CC1(O)CCC2C3CCC4CC=CCC4C3CCC21C (configuration not stated) | 108 to 109
5 | CCc1[nH]n(C2CCCC2)c2nc(Cc3ccc(OCC(=O)O)cc3)nc(=O)c1-2 | 218 to 220
6 | CC1CC1C(=O)Nc1ccc(-n2nc(C(F)(F)F)cc2C(F)(F)F)cc1 (configuration not stated) | 172 to 173
7 | Cc1nc(-c2cccc(C(=O)N[C@H]3CC[C@H](CCN4CCN(c5nccc6c5CCO6)CC4)CC3)c2)no1 | 218
8 | COc1ccc(NS(=O)(=O)c2cc(S(=O)(=O)Nc3ccc(OC)cc3C)c3cc(O)ccc3c2)c(C)c1 | 211 to 213
9 | COCC1(C)OC(=O)N(c2cc(Cl)cc(Cl)c2)C1=O (configuration not stated) | 108 to 111
10 | Cc1cc(C)c(-c2cn(C)c3nc(N)n(C)c(=O)c23)c(C)c1 | 229 to 231
11 | COc1cc2c(cc1OC)CCCC(C(=O)N1CCN(Cc3cc(OC)c(OC)c(OC)c3)C(C(=O)O)C1)=C2 (configuration not stated) | 142 to 144
12 | Cc1c(Br)ccc(C=NO)c1Cl | 77 to 78
13 | Oc1ccc(Cl)cc1C1(O)CCCCC1 | 110
14 | CCOC(=O)c1cc(Cl)cc(N)c1Cl | 63 to 65
15 | C=CCC(C(N)=O)C(N)=O | 168 to 169
16 | C[C@H](NC(=O)c1ncc[nH]1)C(=O)NC(C=O)CC(=O)O (some centres not stated) | 115
17 | CC(C)=CCN1Cc2c(Br)ccc3[nH]c(=S)n(c23)C[C@@H]1C | 161
18 | CN[C@@H](C)[C@@H]1CCN(c2c(F)cc3c(=O)[nH]c(=O)n(C4CC4)c3c2OC)C1 | 162 to 164
19 | CCCCc1c(F)c(F)c(NN)c(F)c1F | 80 to 81
20 | Nc1ccc(C2CCOCC2)cc1 | 122
21 | COC(=O)C1=C(C(=O)OC)C2(c3ccc(Cl)cc3)CCC1O2 (configuration not stated) | 90 to 91

Row | Compound | melting point [°C]
22 | CCCc1noc(-c2ncn3c2[C@@H]2CCCN2C(=O)c2c(Cl)cccc2-3)n1 | 176 to 178
23 | CCOC(=O)c1ncc2[nH]c3ccc(P(=O)(CC)CC)cc3c2n1 | 195 to 197
24 | CNC(c1cccc(OCOC)c1)C1CCCCC1O (configuration not stated) | 87 to 89
25 | CC(C)NC(=O)NCCc1c2c3c(nc(N)c2nn1C)CCCC3 | 237 to 238
26 | CCOC(=O)c1cn2c3c(cc(N(C)C)cc3c1=O)CCC2C (configuration not stated) | 219 to 222
27 | NC(=O)c1cc(OC(F)(F)F)ccc1O | 188 to 190
28 | Nc1ncc2c(n1)CCC(CNC(=O)[C@@H]1CCCN1C(=O)[C@@H](Cc1ccccc1)NS(=O)(=O)Cc1ccccc1)C2 (some centres not stated) | 118 to 121
29 | Cc1cc(NC(C)(C)C)nc(NC(C)(C)C)c1C#N | 134 to 138
30 | CSC1CC(=O)N1CC(=O)O (single isomer, unassigned; (+)) | 117 to 118
31 | O=C1c2ccccc2C(=O)N1CC(=O)N1c2ccccc2N(Cc2ccc(OCc3ccccc3)cc2)C(=O)[C@H]2CCC[C@H]21 (relative stereo) | 179 to 181
32 | CN(C)CCN1C(=O)N2[C@H](c3cccc(O)c3)c3[nH]c4ccc(Br)cc4c3C[C@@]2(C)C1=O (racemic) | 286 to 288
33 | CCOC(=O)C(C(=O)OCC)=C1CSC2=C1SCCNC2 | 87 to 89
34 | Cc1c(-c2ccccc2)c(N2CC[C@H](N(C)C)C2)c2oc(N3CC(CC(=O)O)C3)nc2c1C#N | 125 to 128
35 | CC(=O)NCC1CN(c2ccc(N3CCN(c4nc5ccc(F)cc5o4)CC3)c(F)c2)C(=O)O1 (configuration not stated) | 233 to 234
36 | COC(=O)C1(c2ccccc2)CCN(CCNC(=O)N2C(=O)COCC2c2ccc(F)c(F)c2)CC1 (configuration not stated) | 113 to 117
37 | CC(C)(C)C(=O)C(Br)C(Br)C(=O)C(C)(C)C (configuration not stated) | 107 to 109
38 | COc1ccccc1C(=O)N1CCN(CC2(C)Cc3c(C)c(N)c(C)c(C)c3O2)CC1 (configuration not stated) | 128 to 131
39 | CCC1(c2cn(-c3c(Cl)cc(C(F)(F)F)cc3Cl)nc2C#N)CC1 | 118 to 119
40 | Cc1ccc(S(=O)(=O)OCC2COc3ccc4[nH]c(C(F)(F)F)nc4c3O2)cc1 (configuration not stated) | 114 to 116
41 | O=C(Nc1nc(Cc2ccccc2)c(C(=O)c2sc(NC(=O)Oc3ccccc3)nc2Cc2ccccc2)s1)Oc1ccccc1 | > 285

More lines, now with the values ahead:

Row | melting point [°C] | Compound
42 | 110 to 112 | O=C(O)CCn1c(=O)n(CCCCN2CCC(OC(c3ccccc3)c3ccccc3)CC2)c(=O)c2ccccc21
43 | 114 to 116 | N=C(Cc1ccccc1)Nc1ncccc1OCc1ccccc1
44 | 158 to 161 | CCc1nccc(NC(=O)Cc2ccc(O)cc2)c1Cl
45 | 94 to 96 | Cc1ccc(-c2ncc(N(C)CCCCO)nc2-c2ccc(C)cc2)cc1
46 | 90 to 95 | Cc1cc(F)ccc1-c1nc(N[C@@H](C)CO)nc2c1ccc(=O)n2-c1c(F)cccc1F
47 | 153 to 154 | Cc1ccc(S(=O)(=O)c2nc(Cl)c([N+](=O)[O-])s2)cc1
48 | 120 to 121 | Cc1ccc(C(=O)Nc2ccc(CN3CCN(C)CC3)c(C(F)(F)F)c2)cc1C#Cc1ccc(NC2CCC2)nn1
49 | 260 to 272 | O=Cc1ccc2c(c1)S(=O)(=O)c1ccccc1N2c1ccccc1
50 | 284 to 287 | CCOC(=O)Cn1c(-c2cc3c(cc2N)OCO3)nc2ccccc21
51 | 55 to 56 | COc1ccc(-c2oncc2CCCO)cc1OC
52 | 204 to 205 | O=C1Cc2cc(O)ccc2N1c1c(Cl)cccc1Cl
53 | > 250 | CC1(C)Cc2cc3c(cc2O1)OCC31C(=O)N(CC(=O)Nc2ccccc2F)c2cccc(-c3cncnc3)c21 (configuration not stated)
54 | 178 to 180 | NC(=O)c1cc(NCc2ccc(F)cc2)c([N+](=O)[O-])cc1[N+](=O)[O-]
55 | 227 to 229 | COc1ccc(C(=O)c2c(N)sc3c2CCCC3)c2ccccc12
56 | 125 to 127 | COC(=O)[C@H]1Cc2c([nH]c3ccccc23)[C@@H](c2ccc3c(c2)OCO3)N1C(=O)C(C)Cl (some centres not stated)
57 | 98 to 102 | Cc1ccc2cccc(OCc3c(Cl)ccc(S(=O)(=O)N(C)CCCCCC(=O)O)c3Cl)c2n1
58 | 160 to 161 | C#CCn1cc(Cc2ccc(C(=O)OC)cc2OC)c2cc(NC(=O)CC3CCCC3)ccc21
59 | 154 to 156 | CC(C)(C)OC(=O)NC1CCN(C(=O)[C@@]23C[C@@H](c4ccccc42)c2ccc(Cl)cc23)CC1
60 | 129 to 131 | O=C(O)CCCCCc1cnc2ccccc2c1

Row | melting point [°C] | Compound
61 | 180 | COc1ccc(N2CCN(c3ccc(-n4cnnc4SC)cc3)CC2)cc1
62 | 78 to 80 | CC1(C#N)CN(C(c2ccccc2)c2ccccc2)C1
63 | 63 to 71 | CCCC(c1ccc(C#N)cc1)n1ccnc1 (configuration not stated)
64 | 189 to 190 | CCOC(=O)C(Cc1cccc(OC)c1Oc1ccc([N+](=O)[O-])cc1)(NC(C)=O)C(=O)OCC
65 | 75 to 77 | C[C@H](COS(C)(=O)=O)N1C(=O)c2ccccc2C1=O
66 | 276 to 277 | COc1ccc(N=Nc2ccc(O)c(C(=O)Nc3ccc4[nH]ncc4c3)c2)cc1
67 | 120 to 122 | CCCNC(=O)Oc1ccc2c(ccn2N(CCC)c2ccncc2)c1
68 | 96 to 98 | O=C(Cl)c1ccc(C#Cc2ccccc2F)o1
69 | 51 to 53 | c1ccc2c(c1)CCc1ccccc1C2CCN1CCCC1
70 | 55 to 58 | CC(C)Oc1cc(COc2ccc(C(F)(F)F)cc2)cc(COc2cc(CCC(=O)O)n(-c3ccccc3)n2)c1
71 | 234 to 238 | Brc1ccc(N2CCN(Cc3c[nH]c4ncccc34)CC2)cc1
72 | 162 to 163 | CCN1C(=O)C(C(=O)c2ccco2)c2cc(Cl)cnc21 (configuration not stated)
73 | 107 | O=c1oc(=O)n(Cc2ccc(F)cc2)c2ccc(F)cc12
74 | 214 | N#Cc1cscc1Nc1ccc(Cl)cc1[N+](=O)[O-]
75 | 160 | CC(C)SC1=C(C#N)C(c2ccccc2)(c2ccccc2)C(=O)N1
76 | 174 | Cn1c(=O)cc(-c2cccc(Cl)c2)c2cc(C(=O)c3ccc([N+](=O)[O-])cc3)ccc21
77 | 164 to 166 | O=C(CNS(=O)(=O)c1ccc(N2CCC(c3ccccc3)CC2)cc1)NO
78 | 258 to 260 | CC(=O)Nc1ccc(S(=O)(=O)Nc2cccc(N(C)C(C)=O)c2)cc1
79 | 259 | COc1ccc(-c2nc(N)ncc2-c2ccc(=O)n(C)n2)cc1

Row | melting point [°C] | Compound
80 | 109 to 111 | CCCCCOc1ccc(Cn2c(C)nc(Cl)c2COC(=O)NS(=O)(=O)c2ccc(C)cc2)c(Cl)c1
81 | 212 to 214 | Cc1ccccc1-c1c(C(=O)O)oc2ccc(Cl)cc12
82 | 198 to 199 | CCOC(=O)c1[nH]c2c(NS(=O)(=O)c3cccs3)cccc2c1C
83 | 107 to 110 | O=Cc1ccc(N(c2ccccc2)c2ccccc2)c2ccccc12
84 | 168 to 170 | Cn1nc(-c2ccc(Br)cc2)c2ccccc2c1=O
85 | 72 to 74 | COC(=O)C=C(Nc1cc(CCO)c([N+](=O)[O-])cc1OCc1ccccc1)C(F)(F)F
86 | 230 | CN(C)CCNc1c(-c2ccccc2)c(=O)[nH]c2cc(Cl)ccc12
87 | 143 to 144 | O=C1CCCCC1C(C[N+](=O)[O-])c1ccc(OCc2ccccc2)cc1 (racemic)
88 | 206 | CS(=O)(=O)c1ccc(-c2oc(CO)cc(=O)c2Oc2ccc(F)cc2)cc1
89 | 122 to 125 | CC1=CC(OCc2ccccc2)(OC(=O)c2ccc(Br)c(OCCn3cnnn3)c2C)N(C)N1 (configuration not stated)
90 | 135 | CCCc1cc(CC(=O)O)ccc1OCc1ccc2ccccc2n1
91 | 300 | COc1c(C)c(C(=O)c2ccc3[nH]c(=O)n(O)c(=O)c3c2)n2ccccc12
92 | 194 | CCc1ccc(C=NNC(=O)c2ccc(O)cc2)s1
93 | 217 to 219 | CC1=C(C(=O)Nc2cc(Cl)ccc2Cl)SC2=NCCN21
94 | 295 to 300 | CC(C)c1ccc(NC(=O)Nc2cccc(C(=O)O)c2)cc1
95 | 169 to 174 | Cc1c(NC(=O)c2ccc(OC[C@@H]3CCCO3)cc2)ccc2cc(CN3CCC(C)(O)CC3)cnc12
96 | 177 to 180 | COc1ccc(NC(=O)C(=O)c2c3n(c4ccccc24)CCNCC3)cc1
97 | 53 to 54 | CC(Oc1ccnc2cc(Cl)ccc12)c1ccccc1F (configuration not stated)
